Measurements reported in patent publication US20040006777A1, “Human lymphoid protein tyrosine phosphatases” (HSC Research and Development Limited Partnership, priority 1998, published 2004).

Experiments:
Cbl = conditions: Jurkat cells, pervanadate treatment; cited from earlier work
Lyp1 = target: T1, Lyp1 (Homo sapiens, UniProt Q9Y2R2); assay: In vitro phosphatase assay with 33P labelled Raytide peptide and Lyp immunoprecipitates; assay type: biochemical; conditions: data not shown
T1 construct: made in house; host or cells: COS cells (transient transfection, pcDNA3); anti-T7 immunoprecipitate
T1 sequence (Q9Y2R2 1-807): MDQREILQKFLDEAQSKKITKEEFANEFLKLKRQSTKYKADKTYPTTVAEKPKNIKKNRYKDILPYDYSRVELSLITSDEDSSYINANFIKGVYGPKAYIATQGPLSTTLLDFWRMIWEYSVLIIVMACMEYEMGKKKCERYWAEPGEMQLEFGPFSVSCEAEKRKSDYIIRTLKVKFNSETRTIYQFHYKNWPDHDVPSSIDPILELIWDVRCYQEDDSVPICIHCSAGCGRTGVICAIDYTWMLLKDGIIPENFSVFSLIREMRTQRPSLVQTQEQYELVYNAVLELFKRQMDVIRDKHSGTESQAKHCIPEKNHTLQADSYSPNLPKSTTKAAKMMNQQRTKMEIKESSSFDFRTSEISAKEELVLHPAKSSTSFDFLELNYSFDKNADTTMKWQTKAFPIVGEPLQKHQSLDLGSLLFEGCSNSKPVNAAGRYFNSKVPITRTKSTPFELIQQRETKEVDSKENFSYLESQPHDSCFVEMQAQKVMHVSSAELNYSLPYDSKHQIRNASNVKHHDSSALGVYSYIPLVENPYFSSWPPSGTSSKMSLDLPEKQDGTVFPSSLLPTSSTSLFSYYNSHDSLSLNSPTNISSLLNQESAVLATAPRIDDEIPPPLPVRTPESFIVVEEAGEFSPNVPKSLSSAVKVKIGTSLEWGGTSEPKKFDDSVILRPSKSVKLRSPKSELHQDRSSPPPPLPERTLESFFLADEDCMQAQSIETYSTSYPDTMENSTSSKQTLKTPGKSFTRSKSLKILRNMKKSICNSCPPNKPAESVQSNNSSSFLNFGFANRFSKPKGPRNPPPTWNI
Procedure: Anti-Lyp immunoprecipitates from untransfected and pcDNA3-Lyp1 transfected cells were prepared in pervanadate free lysis buffer and incubated with ^33P labelled substrate Raytide. At the indicated time points reactions were stopped by the addition of charcoal and the free ^33P released from the peptide and now present in the supernatant measured by liquid scintillation counting.
Raytide peptide was ^33P labelled on tyrosine residues in vitro using the tyrosine kinase p60src and purified on phosphocellulose paper. Release of ^33P over time was measured in the phosphatase assay and compared to controls from untransfected cells.
Specifically, the synthetic peptide Raytide was phosphorylated according to the method described by Guan et al., (1994)(54), on tyrosine by p60src (Oncogene Science) as follows: 10 μg Raytide in 50 mM Hepes pH 7.5, 10 mM MgCl2, 0.067% mercaptoethanol, 0.05 mM ATP was incubated with 300 μCiγ^33P ATP per ml and 2 μg p60src in a final volume of 30 μl. The reaction was allowed to proceed for 30 minutes at 30° C. and was stopped by the addition of […] 10% phosphoric acid.
The sample was spotted onto two 1×1 cm sheets of P81 phophocellulose paper and extensively washed with 0.5% phosphoric acid. […]
The phosphorylated substrate was used in the phosphatase assay as described by Stueli et al (1989)(54). […] After centrifugation the free ^33P in the supernatant was measured.

## pervanadate [reference compound]
Cbl
  phosphorylation of Cbl: marked increase
Lyp1
  inhibition of Lyp tyrosine phosphatase activity: completely inhibited
